Source: patent publication US20240287076A1, “COMPOUNDS FOR TARGETING DEGRADATION OF BRUTON'S TYROSINE KINASE” (BIOGEN MA INC., priority 2021, published 2024)

Target: T1, BTK (Homo sapiens, UniProt Q06187)
T1 construct: The GM01501.3 cell line endogenously expresses BTK with a HiBiT fusion tag via CRISPR knock-in at its C-terminal region; endogenous in cells; host or cells: GM01501.3 (GM01501 cells engineered by CRISPR knock-in of HiBiT at the BTK locus)
Assay: BTK degradation assay using the HiBiT Method (Nano-Glo HiBiT Lytic Assay, GM01501.3 cells)
Type: cell-based
Settings: HiBiT Degradation on GM01501.3 BTK @ 6 hours
Method in brief: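 Degradation read-out: HiBiT luminescence after lytic reagent addition, giving DC50. Compounds dosed from 10 μM in 11 half-log steps (duplicate) onto GM01501.3 cells, whose endogenous BTK carries a C-terminal HiBiT knock-in tag; 6 h exposure, 37 °C, 5% CO2.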

T1 sequence (Q06187 whole entry, the tested form may be a part): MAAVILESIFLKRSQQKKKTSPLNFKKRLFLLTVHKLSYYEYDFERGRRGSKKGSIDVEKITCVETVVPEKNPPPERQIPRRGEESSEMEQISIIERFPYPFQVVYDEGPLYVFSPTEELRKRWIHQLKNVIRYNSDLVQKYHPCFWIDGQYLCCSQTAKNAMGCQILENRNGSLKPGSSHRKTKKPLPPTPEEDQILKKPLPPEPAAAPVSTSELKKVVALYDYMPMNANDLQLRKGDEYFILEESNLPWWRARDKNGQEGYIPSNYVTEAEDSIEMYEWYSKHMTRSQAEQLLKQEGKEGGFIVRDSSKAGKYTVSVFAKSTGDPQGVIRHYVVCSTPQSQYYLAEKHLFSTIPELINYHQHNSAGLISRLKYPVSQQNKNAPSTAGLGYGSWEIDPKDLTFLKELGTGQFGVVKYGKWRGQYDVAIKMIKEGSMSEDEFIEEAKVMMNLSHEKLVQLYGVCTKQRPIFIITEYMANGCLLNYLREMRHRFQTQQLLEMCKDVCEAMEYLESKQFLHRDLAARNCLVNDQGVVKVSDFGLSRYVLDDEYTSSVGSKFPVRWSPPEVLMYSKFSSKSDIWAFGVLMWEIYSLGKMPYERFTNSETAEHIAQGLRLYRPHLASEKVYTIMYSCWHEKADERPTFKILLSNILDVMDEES

DC50 [nM] | Compound
< 100 | Cc1cc(-c2ncnn3cc(-c4ccc(OCCN5CCC(c6ccc(CN7CCC(=O)NC7=O)cc6)CC5)cc4)cc23)ccc1CNC(=O)c1noc(C(C)(C)C)n1 [Example 106, 5-tert-butyl-N-[[4-[6-[4-[2-[4-[4-[(2,4-dioxohexahydropyrimidin-1-yl)methyl]phenyl]-1-piperidyl]ethoxy]phenyl]pyrrolo[2,1-f][1,2,4]triazin-4-yl]-2-methyl-phenyl]methyl]-1,2,4-oxadiazole-3-carboxamide]
< 100 | Cc1cc(-c2ncnn3cc(-c4ccc(OCCN5CCC(c6ccc(OC7CCC(=O)NC7=O)cc6)CC5)cc4)cc23)ccc1CNC(=O)c1noc(C(C)(C)C)n1 (stereo not shown) [Example 107, 5-tert-butyl-N-[[4-[6-[4-[2-[4-[4-[(2,6-dioxo-3-piperidyl)oxy]phenyl]-1-piperidyl]ethoxy]phenyl]pyrrolo[2,1-f][1,2,4]triazin-4-yl]-2-methyl-phenyl]methyl]-1,2,4-oxadiazole-3-carboxamide]
< 100 | CC(C)(C)c1nc(C(=O)NCc2ccc(-c3ncnn4cc(-c5ccc(OCCN6CCC(n7ccc(NC8CCC(=O)NC8=O)n7)CC6)cc5)cc34)cc2F)no1 (stereo not shown) [Example 108, 5-tert-butyl-N-[[4-[6-[4-[2-[4-[3-[(2,6-dioxo-3-piperidyl)amino]pyrazol-1-yl]-1-piperidyl]ethoxy]phenyl]pyrrolo[2,1-f][1,2,4]triazin-4-yl]-2-fluoro-phenyl]methyl]-1,2,4-oxadiazole-3-carboxamide]
< 100 | Cn1nc(N2CCC(=O)NC2=O)c2ccc(C3CCN(CCOc4ccc(-c5cc6c(-c7ccc(CNC(=O)c8noc(C(C)(C)C)n8)c(F)c7)ncnn6c5)cc4)CC3)cc21 [Example 109]
< 100 | CC(C)(C)c1nc(C(=O)NCc2ccc(-c3ncnn4cc(-c5ccc(OCCN6CCC(c7ccc(NC8CCC(=O)NC8=O)nc7)CC6)cc5)cc34)cc2F)no1 (stereo not shown) [Example 110, 5-tert-butyl-N-[[4-[6-[4-[2-[4-[6-[(2,6-dioxo-3-piperidyl)amino]-3-pyridyl]-1-piperidyl]ethoxy]phenyl]pyrrolo[2,1-f][1,2,4]triazin-4-yl]-2-fluoro-phenyl]methyl]-1,2,4-oxadiazole-3-carboxamide]
< 100 | CC(C)(C)c1nc(C(=O)NCc2ccc(-c3ncnn4cc(-c5ccc(OCCN6CCC(c7ccc(C8(C)CCC(=O)NC8=O)cc7)CC6)cc5)cc34)cc2F)no1 (stereo not shown) [Example 111, 5-tert-butyl-N-[[2-fluoro-4-[6-[4-[2-[4-[4-(3-methyl-2,6-dioxo-3-piperidyl)phenyl]-1-piperidyl]ethoxy]phenyl]pyrrolo[2,1-f][1,2,4]triazin-4-yl]phenyl]methyl]-1,2,4-oxadiazole-3-carboxamide]
< 100 | Cc1cc(-c2ncnn3cc(-c4ccc(OCCCCCCN5CCC(c6ccc(NC7CCC(=O)NC7=O)cc6)CC5)cc4)cc23)ccc1CNC(=O)c1noc(C(C)(C)C)n1 (stereo not shown) [Example 114, 5-tert-butyl-N-[[4-[6-[4-[6-[4-[4-[(2,6-dioxo-3-piperidyl)amino]phenyl]-1-piperidyl]hexoxy]phenyl]pyrrolo[2,1-f][1,2,4]triazin-4-yl]-2-methyl-phenyl]methyl]-1,2,4-oxadiazole-3-carboxamide]
< 100 | Cc1cc(-c2ncnn3cc(CCN4CCC(c5ccc(C6CCC(=O)NC6=O)cc5)CC4)cc23)ccc1CNC(=O)c1noc(C(C)(C)C)n1 (stereo not shown) [Example 116, 5-tert-butyl-N-[[4-[6-[2-[4-[4-(2,6-dioxo-3-piperidyl)phenyl]-1-piperidyl]ethyl]pyrrolo[2,1-f][1,2,4]triazin-4-yl]-2-methyl-phenyl]methyl]-1,2,4-oxadiazole-3-carboxamide]
< 100 | Cc1cc(-c2ncnn3cc(CCN4CCC(c5ccc(NC6CCC(=O)NC6=O)cc5)CC4)cc23)ccc1CNC(=O)c1noc(C(C)(C)C)n1 (stereo not shown) [Example 117, 5-tert-butyl-N-[[4-[6-[2-[4-[4-[(2,6-dioxo-3-piperidyl)amino]phenyl]-1-piperidyl]ethyl]pyrrolo[2,1-f][1,2,4]triazin-4-yl]-2-methyl-phenyl]methyl]-1,2,4-oxadiazole-3-carboxamide]
< 100 | Cc1cc(-c2ncnn3cc(CCN4CCC(c5ccc(OC6CCC(=O)NC6=O)cc5)CC4)cc23)ccc1CNC(=O)c1noc(C(C)(C)C)n1 (stereo not shown) [Example 118, 5-tert-butyl-N-[[4-[6-[2-[4-[4-[(2,6-dioxo-3-piperidyl)oxy]phenyl]-1-piperidyl]ethyl]pyrrolo[2,1-f][1,2,4]triazin-4-yl]-2-methyl-phenyl]methyl]-1,2,4-oxadiazole-3-carboxamide]
< 100 | Cc1cc(-c2ncnn3cc(CCN4CCC(c5ccc(C6CCC(=O)NC6=O)cc5)C(F)(F)C4)cc23)ccc1CNC(=O)c1noc(C(C)(C)C)n1 (stereo not shown) [Example 119, 5-tert-butyl-N-[[4-[6-[2-[4-[4-(2,6-dioxo-3-piperidyl)phenyl]-3,3-difluoro-1-piperidyl]ethyl]pyrrolo[2,1-f][1,2,4]triazin-4-yl]-2-methyl-phenyl]methyl]-1,2,4-oxadiazole-3-carboxamide]
< 100 | CC(C)(C)c1nc(C(=O)NCc2ccc(-c3ncnn4cc(CCN5CCC(c6ccc(NC7CCC(=O)NC7=O)cc6)CC5)cc34)cc2F)no1 (stereo not shown) [Example 120, 5-tert-butyl-N-[[4-[6-[2-[4-[4-[(2,6-dioxo-3-piperidyl)amino]phenyl]-1-piperidyl]ethyl]pyrrolo[2,1-f][1,2,4]triazin-4-yl]-2-fluoro-phenyl]methyl]-1,2,4-oxadiazole-3-carboxamide]
100 to 500 | CC(C)(C)c1nc(C(=O)NCc2ccc(-c3ncnn4cc(CCN5CCC(c6ccc(C7(C)CCC(=O)NC7=O)cc6)CC5)cc34)cc2F)no1 (stereo not shown) [Example 121, 5-tert-butyl-N-[[2-fluoro-4-[6-[2-[4-[4-(3-methyl-2,6-dioxo-3-piperidyl)phenyl]-1-piperidyl]ethyl]pyrrolo[2,1-f][1,2,4]triazin-4-yl]phenyl]methyl]-1,2,4-oxadiazole-3-carboxamide]
< 100 | CC(C)(C)c1nc(C(=O)NCc2ccc(-c3ncnn4cc(CCN5CCC(c6ccc(NC7CCC(=O)NC7=O)cn6)CC5)cc34)cc2F)no1 (stereo not shown) [Example 122, 5-tert-butyl-N-[[4-[6-[2-[4-[5-[(2,6-dioxo-3-piperidyl)amino]-2-pyridyl]-1-piperidyl]ethyl]pyrrolo[2,1-f][1,2,4]triazin-4-yl]-2-fluoro-phenyl]methyl]-1,2,4-oxadiazole-3-carboxamide]
100 to 500 | CC(C)(C)c1nc(C(=O)NCc2ccc(-c3ncnn4cc(CCN5CCC(n6ccc(NC7CCC(=O)NC7=O)n6)CC5)cc34)cc2F)no1 (stereo not shown) [Example 123, 5-tert-butyl-N-[[4-[6-[2-[4-[3-[(2,6-dioxo-3-piperidyl)amino]pyrazol-1-yl]-1-piperidyl]ethyl]pyrrolo[2,1-f][1,2,4]triazin-4-yl]-2-fluoro-phenyl]methyl]-1,2,4-oxadiazole-3-carboxamide]
< 100 | Cn1nc(N2CCC(=O)NC2=O)c2ccc(C3CCN(CCc4cc5c(-c6ccc(CNC(=O)c7noc(C(C)(C)C)n7)c(F)c6)ncnn5c4)CC3)cc21 [Example 124]
< 100 | Cc1cc(-c2ncnn3cc(CN(C)CCN4CCC(c5ccc(C6CCC(=O)NC6=O)cc5)CC4)cc23)ccc1CNC(=O)c1noc(C(C)(C)C)n1 (stereo not shown) [Example 125, 5-tert-butyl-N-[[4-[6-[[2-[4-[4-(2,6-dioxo-3-piperidyl)phenyl]-1-piperidyl]ethyl-methyl-amino]methyl]pyrrolo[2,1-f][1,2,4]triazin-4-yl]-2-methyl-phenyl]methyl]-1,2,4-oxadiazole-3-carboxamide]
100 to 500 | Cc1cc(-c2ncnn3cc(CN4CCN(CCCc5ccc(NC6CCC(=O)NC6=O)cc5)CC4)cc23)ccc1CNC(=O)c1noc(C(C)(C)C)n1 (stereo not shown) [Example 126, 5-tert-butyl-N-[[4-[6-[[4-[3-[4-[(2,6-dioxo-3-piperidyl)amino]phenyl]propyl]piperazin-1-yl]methyl]pyrrolo[2,1-f][1,2,4]triazin-4-yl]-2-methyl-phenyl]methyl]-1,2,4-oxadiazole-3-carboxamide]
< 100 | Cc1cc(-c2ncnn3cc(CCCN4CCC(c5ccc(NC6CCC(=O)NC6=O)cc5)CC4)cc23)ccc1CNC(=O)c1noc(C(C)(C)C)n1 (stereo not shown) [Example 127, 5-tert-butyl-N-[[4-[6-[3-[4-[4-[(2,6-dioxo-3-piperidyl)amino]phenyl]-1-piperidyl]propyl]pyrrolo[2,1-f][1,2,4]triazin-4-yl]-2-methyl-phenyl]methyl]-1,2,4-oxadiazole-3-carboxamide]

Compound | DC50 [nM]
Cc1cc(-c2ncnn3cc(-c4ccc(OCCCCN5CCC(c6ccc(NC7CCC(=O)NC7=O)cc6)CC5)cc4)cc23)ccc1CNC(=O)c1nc(C(C)(C)C)ns1 (stereo not shown) [Example 112, 3-tert-butyl-N-[[4-[6-[4-[4-[4-[4-[(2,6-dioxo-3-piperidyl)amino]phenyl]-1-piperidyl]butoxy]phenyl]pyrrolo[2,1-f][1,2,4]triazin-4-yl]-2-methyl-phenyl]methyl]-1,2,4-thiadiazole-5-carboxamide] | < 100
Cc1cc(-c2ncnn3cc(-c4ccc(OCCCCN5CCC(c6ccc(NC7CCC(=O)NC7=O)cc6)CC5)cc4)cc23)ccc1CNC(=O)c1noc(C(C)(C)C)n1 (stereo not shown) [Example 113, -tert-butyl-N-[[4-[6-[4-[4-[4-[4-[(2,6-dioxo-3-piperidyl)amino]phenyl]-1-piperidyl]butoxy]phenyl]pyrrolo[2,1-f][1,2,4]triazin-4-yl]-2-methyl-phenyl]methyl]-1,2,4-oxadiazole-3-carboxamide] | < 100
Cc1cc(-c2ncnn3cc(-c4ccc(OCCCCCCCCN5CCC(c6ccc(NC7CCC(=O)NC7=O)cc6)CC5)cc4)cc23)ccc1CNC(=O)c1noc(C(C)(C)C)n1 (stereo not shown) [Example 115, -tert-butyl-N-[[4-[6-[4-[8-[4-[4-[(2,6-dioxo-3-piperidyl)amino]phenyl]-1-piperidyl]octoxy]phenyl]pyrrolo[2,1-f][1,2,4]triazin-4-yl]-2-methyl-phenyl]methyl]-1,2,4-oxadiazole-3-carboxamide] | < 100
